`O=S(=O)(Nc1cccc(CCOCc2ccc(-c3ccc(Cl)cc3)cc2F)c1)C(F)(F)F` had a melting point of 99 to 101 °C.

In turn, `COC(=O)CN=C(Cc1ccccc1)N1CC2C(=O)CCC(c3ccccc3)(c3ccccc3)C2C1` (stereo not drawn) gave a melting point of 147 °C. `C=C(C)C(=O)Nc1ccc(O)c(C(=O)O)c1` came in with a melting point of 218 °C. `CCN(CC)C(C)COc1ccccc1C(=O)O` (stereo not drawn): the melting point lay within 137 to 140 °C. Take `COc1ccc(C(=O)Nc2ccc(C(=O)O)cc2)cc1C12CC3CC(CC(C3)C1)C2`: the melting point is 286 to 287 °C. Compound `CNC(=O)[C@@H]1C[C@H](OS(=O)(=O)c2ccc(C)cc2)CN1S(=O)(=O)c1ccc(C)cc1` came in with a melting point of 147 to 149 °C. In the case of `Cc1c(N)ccc2c(O)c(C(=O)NCc3ccc(Cl)cc3)cnc12`, the melting point lay within 256 to 258 °C.

In turn, `COc1cc2cc(C(=O)OC(C)(C)C)c(N)cc2cc1OCCN1CCOCC1` gave a melting point of 125 to 127 °C. Consider `Fc1ccc(-c2cn([C@H]3CN4CCC3CC4)nn2)cc1`, for which the melting point came out at 139 °C. As for `CCc1nc2c(N)nc3ccccc3c2n1CCOCCNC(=O)NC1CCCCC1`, the melting point is 198 to 200 °C. Compound `Cc1cccc(Nc2nc(Cl)nc(Cl)n2)c1C` registered a melting point of 186 to 188 °C.

Take `COc1cc2nc(N3CCc4c(CO)cccc4C3)[nH]c(=O)c2cc1OC`: the melting point lay in the range of 200 to 206 °C.

`Cc1ccc2cccc(OCc3c(Cl)ccc(N)c3C#N)c2n1` registered a melting point of 248 to 251 °C. On to `CC(=O)c1c(F)cccc1N1CCN(CCCCOc2ccc3c(n2)NC(=O)CC3)CC1`, for which the melting point was determined as 64 °C.

Consider `Cc1ncc(CCCOc2c(C)cc(-c3noc(C(F)(F)F)n3)cc2C)s1`, for which the melting point lay in the range of 62 to 64 °C. In turn, `CC1(C)Cc2cccc(OC(=O)Cl)c2O1` showed a melting point of 85 to 87.5 °C.

`O=C(O)c1ccc(-c2c([N+](=O)[O-])oc3c2ccc2ccccc23)cc1` had a melting point of over 300 °C. `CCCSc1sc(C(=O)O)c2c1-c1c(cnn1C)CC2`: the melting point fell in the range of 216 to 217 °C. For `N#Cc1cn(-c2c(Cl)cc(C(F)(F)F)cc2Cl)c(N)c1I` the value was 130 to 132 °C; for `NC(=O)CCCCC(=O)c1ccccc1`, 113 to 114 °C; for `Cc1ccc(-c2ncc3c(n2)CCCCC3)nc1-c1ccncc1`, 198 to 200 °C. Regarding `O=C(O)c1ccc(Cn2ccc3cc(OCc4ccc5ccccc5n4)ccc32)cc1`, the melting point is 212 to 216 °C. As to `CC(C)(C)NS(=O)(=O)c1ccc(C(=O)c2ccc(Cl)cc2)cc1F`, the melting point worked out at 152 °C. `Nc1ccccc1N1CCN(CC(O)COc2cccc3c2CCCC3)CC1` (stereo not drawn) came in with a melting point of 103 to 104 °C. The figure for `CNC(=O)CC1N=C(C2CCCCC2)c2c(sc(C)c2C)-n2c(C)nnc21` (stereo not drawn) is 228 to 231 °C; for `COc1ccc(S(=O)(=O)Nc2ccccc2NC(=O)c2cccc(O)c2)cc1` it is 191 to 192 °C; for `O=Cc1ccn(-c2cc3[nH]c(=O)c(=O)[nH]c3cc2[N+](=O)[O-])c1` it is over 250 °C. For the compound `C#CC(Cc1ccc(OC)c(OC2CCCC2)c1)C(=O)O` (stereo not drawn), the melting point fell in the range of 109 to 110 °C. The compound `CCC1(C)COP(=O)(Cc2ccc([N+](=O)[O-])cc2)OC1` (stereo not drawn) had a melting point of 184 to 185 °C. `Oc1ccc2c(c1)CCC(NCC(O)COc1cccc3ccccc13)C2` (stereo not drawn) displayed a melting point of 118 to 120 °C. The compound `CC(=O)c1ccc2c(c1O)CC(O)CO2` (stereo not drawn) displayed a melting point of 130 to 132 °C. For `Cc1sc2c(I)c3ccccc3c(-c3ccc(OS(C)(=O)=O)cc3)c2c1C` the value was 212 to 213 °C; for `CCCCCCNC(=O)c1cnc2cccc(C)n2c1=O`, 116 to 118 °C. Consider `Cc1ccc(S(=O)(=O)N2CCC(c3cccc4c3CCCC(C(=O)O)=C4)CC2)cc1`, for which the melting point lay within 255 to 257 °C.

Compound `CCCCc1nc2c(N)nc3cc(-c4ccc(OCCC)cc4)ccc3c2n1CC(C)C` returned a melting point of 194 to 197 °C.

Compound `c1ccc(COc2ccc(-c3ccc(OCCCN4CCCCC4)cc3)nn2)cc1` yielded a melting point of 138 °C. The figure for `Cc1ncc2c(n1)-c1ccc(Cl)cc1C(c1ccccc1Cl)=NC2` is 193 to 197 °C. `Cc1ccc(C)n1-c1ccc(F)c([N+](=O)[O-])c1`: the melting point lay in the range of 99 to 101 °C. As to `Cc1c(C(=O)O)nc2c(=O)[nH]c3ccc(-n4ccnc4)cc3n12`, the melting point is over 250 °C. The figure for `O=S1(=O)NC2CCCN2c2ccc(Oc3cccc(-c4nnn[nH]4)c3)cc21` (stereo not drawn) is 266 to 272 °C. Turning to `O=C1COc2ccc(C3=Cc4cc(F)ccc4SC3c3ccc(F)cc3)cc2N1` (stereo not drawn), the melting point lay in the range of 191 to 192 °C.

Regarding `Cc1cn2c(N)c(Cl)cc(C(=O)NCC3CCN(C(C)C(=O)C(C)(C)C)CC3)c2n1` (stereo not drawn), the melting point came out at 207 °C.

Compound `O=C(O)c1c(-c2cccc3ccccc23)c2ccccc2n1Cc1cc2c(cc1Cl)OCO2` yielded a melting point of 241 to 242 °C.

In turn, `Fc1ccc(-c2c(-c3ccncc3)nn3nccnc23)cc1` displayed a melting point of 177 to 178 °C. Compound `COC(=O)Cn1c2c(c3ccccc3c1=O)C(=O)c1ccccc1-2` gave a melting point of 248 to 251 °C. Turning to `Nc1nc2ccccc2c2c1nc1n2C(C2CCOCC2)COC1` (stereo not drawn), the melting point was in the range of 240 to 243 °C. In turn, `CC(=O)N1CCN=C1Nc1cccc2c1CCCC2` showed a melting point of 142 to 144 °C. With `CC(=O)N1N=C(c2ccc(NC(=O)CCl)cc2)c2cc3c(cc2CC1C)OCO3` (stereo not drawn), the melting point lay in the range of 139 to 140 °C. On to `CCC(=S)c1ccc(C)cc1`, for which the melting point fell in the range of 55 to 56 °C.

Turning to `CC1=C(C(=O)OC(C)C)C(c2cccc([N+](=O)[O-])c2)N(C(=O)Oc2ccc([N+](=O)[O-])cc2)C(=O)N1` (stereo not drawn), the melting point lay in the range of 138 to 140 °C.

In turn, `Nc1ncnc2c(C3OC(CO)C(O)C3O)[nH]nc12` (stereo not drawn) had a melting point of 141 to 142 °C.

For `NS(=O)(=O)c1ccc(NN=C2C(=O)Nc3ccc(C(=O)NCc4cccnc4)cc32)cc1`, the melting point was 211 to 215 °C. Take `COc1ccc(Cl)c(Oc2c(NS(=O)(=O)c3ccc(C(C)C)cn3)ncnc2OCCOC(=O)Nc2ccccn2)c1`: the melting point lay within 190 to 191 °C.

Consider `Cc1[nH]cnc1CCNC(=NCCSCc1nc[nH]c1C)NC#N`, for which the melting point is 190 to 191 °C.

`CCOC(=O)c1c(Cl)ccc(C(=O)O)c1Cl`: the melting point was 168 °C. In the case of `Cc1ncccc1-c1nc(C(F)(F)F)cn1-c1ccc(S(C)(=O)=O)cc1`, the melting point was 160 to 161 °C. As to `Cn1c(-c2ccccc2S(=O)c2nc3ccccc3[nH]2)nc2ccccc21` (stereo not drawn), the melting point is 164 °C. Turning to `O=C(O)c1cccc(-c2nnc(-c3ccc(C(F)(F)F)cc3)o2)c1`, the melting point fell in the range of 239 to 240 °C. `N#CNC1NN=C(c2ccc3ccccc3c2)O1` (stereo not drawn) returned a melting point of over 250 °C.

On to `Cc1cc(C)c2nc(NC3CCN(CCC(N)=O)CC3)n(Cc3nc(C)ccc3O)c2c1`, for which the melting point is 212 °C. Turning to `Fc1cccc(F)c1-c1cncn1-c1ccc(Cl)cc1`, the melting point lay in the range of 170 to 172 °C.

In turn, `CCC(CC)(CO)Nc1nc(-c2ccc(C#N)cc2)cs1` came in with a melting point of 118 to 120 °C. In turn, `BrCCCCCCC1(CCCCCCBr)c2cc(Br)ccc2-c2ccc(Br)cc21` gave a melting point of 68 °C.
